Measured values from US20260137703A1, “2-AMINO-PYRIDO[2,3-D]PYRIMIDIN-7(8H)-ONE AND 7-AMINO-1-PYRIMIDO[4,5-D]PYRIMIDIN-2(1 H)-ONE DERIVATIVES AS EGFR INHIBITORS FOR THE TREATMENT OF CANCER” (Cancer Research Technology Limited, priority 2022, published 2026).

Key:
[1] = target: T1, Phospho-EGFR (Tyr1068) in H1975 C797S cells (CRISPR-edited EGFR C797S) (Homo sapiens, UniProt P00533, C797S/L858R/T790M); assay: HTRF pEGFR/total EGFR in H1975 C797S cells; format: cell-based; details: ratio pEGFR/total EGFR, compound 3 hours
T1 construct: host or cells: H1975 C797S (CRISPR-edited)
Procedure: […]. Once adhered (after 24 h) cells were treated with compounds dissolved in DMSO at a final concentration of 0.1% DMSO in media. Compounds were diluted in media then added to cells for 3 hours in duplicate. Compound and media were removed from the cells, then 50 ul of HTRF lysis buffer was added (lysis buffer was diluted from 4× stock to 1× in DI water, with 1% blocking agent also added). Cells were lysed on a plate shaker (2000 rpm) for 30 minutes at room temperature. pEGFR expression was monitored using the Cisbio Phospho-EGFR (Tyr1068) cellular kit (64EG1PEH). Total EGFR expression was monitored using the Cisbio Total EGFR cellular kit (64NG1PEH) as per manufacturer's instructions. Fluorescence emission was read at two different wavelengths (665 nm and 620 nm) on a PheraStar. Results were calculated as ratio of pEGFR/total EGFR and then percentage of 0 μM control.

[2] = target: CtermHisTag-mEGFR Wild type (Homo sapiens, UniProt P00533); assay: biochemical
[3] = target: T2, Phospho-EGFR (Tyr1068) in H1975 cells (Homo sapiens, UniProt P00533, L858R/T790M); assay: HTRF pEGFR/total EGFR in H1975 cells; format: cell-based; details: ratio pEGFR/total EGFR, compound 3 hours
T2 construct: host or cells: H1975
Procedure: H1975 cells (ATCC CRL-5908) were plated at 20,000 cells per well in 96 well plates and placed at 37° C. 5% CO2. Once adhered (after 24 h) cells were treated with compounds dissolved in DMSO at a final concentration of 0.1% DMSO in media. Compounds were diluted in media then added to cells for 3 hours in duplicate. Compound and media were removed from the cells, then 50 ul of HTRF lysis buffer is added (lysis buffer was diluted from 4× stock to 1× in DI water, with 1% blocking agent also added). Cells were lysed on a plate shaker (2000 rpm) for 30 minutes at room temperature. pEGFR expression was monitored using the Cisbio Phospho-EGFR (Tyri068) cellular kit (64EG1PEH). Total EGFR expression was monitored using the Cisbio Total EGFR cellular kit (64NG1PEH) as per manufacturer's instructions. Fluorescence emission was read at two different wavelengths (665 nm and 620 nm) on a PheraStar. Results were calculated as ratio of pEGFR/total EGFR and then percentage of 0 μM control.

[4] = target: T3, Phospho-EGFR (Tyr1068) in A431 cells (Homo sapiens, UniProt P00533); assay: HTRF pEGFR/total EGFR in A431 cells with EGF stimulation; format: cell-based; details: ratio pEGFR/total EGFR, compound 2.5 hours then 100 ng/ml EGF 30 mins
T3 construct: endogenous in cells; host or cells: A431
Procedure: Cells were plated at 20,000 cells per well in 96 well plates and placed at 37° C. 5% CO2. Once adhered (after 24 h) cells were treated with compounds dissolved in DMSO at a final concentration of 0.1% DMSO in media. Compounds were diluted in media then added to cells for 2.5 hours in duplicate, 100 ng/ml EGF (ThermoFisher, PHG0311) was added to all compound treated cells as well as a control for 30 mins. Compound and media were removed from the cells, then 50 ul of HTRF lysis buffer was added (lysis buffer was diluted from 4× stock to 1× in DI water, with 1% blocking agent also added). Cells were lysed on a plate shaker (2000 rpm) for 30 minutes at room temperature. pEGFR expression was monitored using the Cisbio Phospho-EGFR (Tyr1068) cellular kit (64EG1PEH). Total EGFR expression was monitored using the Cisbio Total EGFR cellular kit (64NG1PEH) as per manufacturer's instructions. Fluorescence emission was read at two different wavelengths (665 nm and 620 nm) on a PheraStar. Results were calculated as ratio of pEGFR/total EGFR and then percentage of 0 μM control.

T2 sequence (P00533 25-1210 T790M/L858R): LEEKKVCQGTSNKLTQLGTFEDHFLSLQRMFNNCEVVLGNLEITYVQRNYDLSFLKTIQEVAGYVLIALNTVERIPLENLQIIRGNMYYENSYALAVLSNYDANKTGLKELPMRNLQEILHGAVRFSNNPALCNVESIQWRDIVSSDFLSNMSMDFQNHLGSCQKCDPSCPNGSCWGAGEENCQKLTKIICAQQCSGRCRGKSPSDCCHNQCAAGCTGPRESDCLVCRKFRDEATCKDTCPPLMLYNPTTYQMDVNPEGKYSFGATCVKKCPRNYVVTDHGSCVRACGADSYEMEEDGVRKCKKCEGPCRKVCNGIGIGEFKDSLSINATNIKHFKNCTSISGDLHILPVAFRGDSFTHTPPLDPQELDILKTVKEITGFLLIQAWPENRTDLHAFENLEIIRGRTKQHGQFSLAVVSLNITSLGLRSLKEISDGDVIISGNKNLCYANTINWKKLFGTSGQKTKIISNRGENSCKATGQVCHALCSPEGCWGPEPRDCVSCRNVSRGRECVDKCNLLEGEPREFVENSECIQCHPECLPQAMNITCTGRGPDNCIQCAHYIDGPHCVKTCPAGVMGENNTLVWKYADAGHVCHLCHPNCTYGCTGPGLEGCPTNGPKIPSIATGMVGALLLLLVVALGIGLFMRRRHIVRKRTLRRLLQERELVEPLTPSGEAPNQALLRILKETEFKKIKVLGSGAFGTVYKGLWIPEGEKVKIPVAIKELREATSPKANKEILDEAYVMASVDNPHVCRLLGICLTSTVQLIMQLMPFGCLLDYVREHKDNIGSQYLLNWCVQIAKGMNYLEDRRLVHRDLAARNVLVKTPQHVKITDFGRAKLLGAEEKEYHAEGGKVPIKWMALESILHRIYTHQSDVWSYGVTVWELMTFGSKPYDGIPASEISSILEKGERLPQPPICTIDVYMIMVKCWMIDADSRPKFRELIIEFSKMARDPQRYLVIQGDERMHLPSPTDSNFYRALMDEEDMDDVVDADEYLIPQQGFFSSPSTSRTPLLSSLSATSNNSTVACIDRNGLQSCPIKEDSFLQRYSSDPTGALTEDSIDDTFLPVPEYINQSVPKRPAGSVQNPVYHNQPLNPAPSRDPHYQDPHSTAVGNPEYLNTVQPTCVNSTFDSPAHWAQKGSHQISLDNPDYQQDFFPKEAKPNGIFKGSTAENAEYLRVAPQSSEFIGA
T1 sequence (P00533 25-1210 T790M/C797S/L858R): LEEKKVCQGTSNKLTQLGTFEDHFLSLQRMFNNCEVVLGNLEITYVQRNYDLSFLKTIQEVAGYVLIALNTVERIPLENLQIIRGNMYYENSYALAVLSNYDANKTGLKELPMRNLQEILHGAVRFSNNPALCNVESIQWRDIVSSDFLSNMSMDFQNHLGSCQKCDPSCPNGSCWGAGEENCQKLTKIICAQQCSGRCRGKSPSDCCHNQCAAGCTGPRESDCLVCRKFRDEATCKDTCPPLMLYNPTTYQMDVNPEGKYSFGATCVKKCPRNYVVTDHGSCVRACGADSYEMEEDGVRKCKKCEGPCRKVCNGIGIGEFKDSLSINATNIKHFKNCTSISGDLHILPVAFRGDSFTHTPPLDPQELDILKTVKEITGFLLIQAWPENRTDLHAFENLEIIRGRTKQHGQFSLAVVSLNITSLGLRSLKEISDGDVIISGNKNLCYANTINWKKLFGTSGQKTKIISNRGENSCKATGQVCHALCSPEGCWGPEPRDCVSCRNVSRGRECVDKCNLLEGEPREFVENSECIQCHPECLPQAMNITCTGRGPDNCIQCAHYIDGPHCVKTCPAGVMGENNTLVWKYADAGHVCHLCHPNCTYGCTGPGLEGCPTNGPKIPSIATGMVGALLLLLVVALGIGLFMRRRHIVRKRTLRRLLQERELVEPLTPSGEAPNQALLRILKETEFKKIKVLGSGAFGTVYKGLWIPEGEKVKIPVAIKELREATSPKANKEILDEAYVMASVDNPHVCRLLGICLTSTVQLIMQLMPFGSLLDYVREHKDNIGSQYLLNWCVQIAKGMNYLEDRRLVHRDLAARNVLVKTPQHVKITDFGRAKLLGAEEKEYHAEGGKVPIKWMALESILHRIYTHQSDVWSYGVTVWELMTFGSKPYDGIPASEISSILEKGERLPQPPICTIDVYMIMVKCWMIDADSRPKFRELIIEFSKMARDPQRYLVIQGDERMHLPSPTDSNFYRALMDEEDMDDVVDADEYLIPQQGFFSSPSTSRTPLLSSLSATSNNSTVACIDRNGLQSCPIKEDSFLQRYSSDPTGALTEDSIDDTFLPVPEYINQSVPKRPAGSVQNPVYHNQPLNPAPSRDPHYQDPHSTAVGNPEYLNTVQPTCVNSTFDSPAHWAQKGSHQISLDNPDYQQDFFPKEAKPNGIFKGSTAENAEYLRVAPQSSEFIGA
CtermHisTag-mEGFR Wild type, sequence (P00533 whole entry): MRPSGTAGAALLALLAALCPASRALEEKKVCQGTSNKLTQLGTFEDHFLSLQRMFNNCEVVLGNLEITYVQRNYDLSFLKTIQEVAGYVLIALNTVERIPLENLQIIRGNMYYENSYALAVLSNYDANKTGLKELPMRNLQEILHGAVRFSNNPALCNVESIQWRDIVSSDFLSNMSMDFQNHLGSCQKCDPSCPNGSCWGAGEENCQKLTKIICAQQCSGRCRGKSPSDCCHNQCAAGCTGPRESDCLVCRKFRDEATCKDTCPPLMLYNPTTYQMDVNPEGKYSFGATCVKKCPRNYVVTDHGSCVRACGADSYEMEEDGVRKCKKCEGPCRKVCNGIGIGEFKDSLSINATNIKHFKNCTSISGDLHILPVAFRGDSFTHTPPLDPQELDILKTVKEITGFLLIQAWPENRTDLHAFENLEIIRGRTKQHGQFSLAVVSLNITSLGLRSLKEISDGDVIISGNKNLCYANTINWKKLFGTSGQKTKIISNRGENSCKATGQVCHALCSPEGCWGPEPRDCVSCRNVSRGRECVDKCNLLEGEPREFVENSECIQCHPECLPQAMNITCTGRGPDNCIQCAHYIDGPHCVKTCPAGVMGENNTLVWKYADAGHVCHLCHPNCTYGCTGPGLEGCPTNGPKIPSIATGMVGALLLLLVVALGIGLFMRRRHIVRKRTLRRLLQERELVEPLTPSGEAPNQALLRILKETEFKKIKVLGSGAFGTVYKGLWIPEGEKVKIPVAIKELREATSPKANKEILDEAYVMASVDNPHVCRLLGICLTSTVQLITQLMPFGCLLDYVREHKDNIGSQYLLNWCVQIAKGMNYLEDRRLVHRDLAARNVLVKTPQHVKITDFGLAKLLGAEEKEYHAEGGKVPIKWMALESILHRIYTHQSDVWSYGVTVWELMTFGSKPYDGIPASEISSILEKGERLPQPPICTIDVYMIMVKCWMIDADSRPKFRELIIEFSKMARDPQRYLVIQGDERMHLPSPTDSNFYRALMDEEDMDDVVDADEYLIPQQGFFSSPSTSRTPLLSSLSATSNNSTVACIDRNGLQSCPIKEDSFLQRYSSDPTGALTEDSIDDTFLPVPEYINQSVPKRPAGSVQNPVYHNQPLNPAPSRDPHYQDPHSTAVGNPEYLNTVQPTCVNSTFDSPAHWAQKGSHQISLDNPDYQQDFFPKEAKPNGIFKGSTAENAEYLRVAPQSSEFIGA
T3 sequence (P00533 25-1210): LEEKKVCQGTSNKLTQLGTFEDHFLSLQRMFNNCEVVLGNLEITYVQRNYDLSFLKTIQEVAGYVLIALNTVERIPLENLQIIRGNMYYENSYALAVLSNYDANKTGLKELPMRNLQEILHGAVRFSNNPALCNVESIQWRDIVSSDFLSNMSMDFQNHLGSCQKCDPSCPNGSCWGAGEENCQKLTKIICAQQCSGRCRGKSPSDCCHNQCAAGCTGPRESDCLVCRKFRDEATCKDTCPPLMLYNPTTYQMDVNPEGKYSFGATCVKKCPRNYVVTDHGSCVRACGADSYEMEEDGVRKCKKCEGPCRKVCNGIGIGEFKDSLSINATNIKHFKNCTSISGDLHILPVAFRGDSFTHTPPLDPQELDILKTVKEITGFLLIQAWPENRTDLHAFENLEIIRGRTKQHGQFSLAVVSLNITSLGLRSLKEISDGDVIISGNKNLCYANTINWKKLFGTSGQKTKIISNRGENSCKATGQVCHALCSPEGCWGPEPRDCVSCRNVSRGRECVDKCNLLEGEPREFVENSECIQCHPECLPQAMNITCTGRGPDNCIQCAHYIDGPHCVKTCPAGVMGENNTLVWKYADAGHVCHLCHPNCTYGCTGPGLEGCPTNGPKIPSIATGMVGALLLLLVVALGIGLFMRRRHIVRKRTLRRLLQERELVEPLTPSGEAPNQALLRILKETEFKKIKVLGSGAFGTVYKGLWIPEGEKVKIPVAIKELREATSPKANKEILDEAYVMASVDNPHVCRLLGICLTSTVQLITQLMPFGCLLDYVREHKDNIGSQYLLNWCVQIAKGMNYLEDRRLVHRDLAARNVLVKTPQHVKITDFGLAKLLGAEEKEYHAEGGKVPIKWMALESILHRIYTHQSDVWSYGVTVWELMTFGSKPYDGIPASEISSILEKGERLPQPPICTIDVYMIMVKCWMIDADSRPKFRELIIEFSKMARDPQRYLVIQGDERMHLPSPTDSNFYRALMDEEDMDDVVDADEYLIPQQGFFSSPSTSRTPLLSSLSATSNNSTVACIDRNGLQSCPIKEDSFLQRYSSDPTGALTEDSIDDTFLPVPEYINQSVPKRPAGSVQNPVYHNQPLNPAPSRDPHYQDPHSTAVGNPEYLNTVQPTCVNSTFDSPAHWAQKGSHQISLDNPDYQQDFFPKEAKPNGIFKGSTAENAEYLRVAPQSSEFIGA

Compound | IC50 [1] [nM] | IC50 [2] [nM] | IC50 [3] [nM] | IC50 [4] [nM]
C#Cc1c(C)c(=O)n(Cc2ccn[nH]2)c2nc(Nc3ccc(N4CCN(C)CC4)cc3)ncc12 [Example 109, 5-ethynyl-6-methyl-2-{[4-(4-methylpiperazin-1-yl)phenyl]amino}-8-(2H-pyrazol-3-ylmethyl)pyrido[2,3-d]pyrimidin-7-one] | 1000 to 3000 | 1000 to 10000 | 1000 to 3000 | 1000 to 3000
C=Cc1cc(=O)n(-c2ccc(OC)cc2OC)c2nc(Nc3ccc(N(C)CCN(C)C)cc3)ncc12 [Example 155, 8-(2,4-dimethoxyphenyl)-2-[(4-{[2-(dimethylamino)ethyl](methyl)amino}phenyl)amino]-5-ethenylpyrido[2,3-d]pyrimidin-7-one] | > 3000 | 1000 to 10000 | > 3000 | > 3000
C#Cc1cc(=O)n2c3nc(ncc13)Nc1ccc(N3CCN(C)CC3)c(c1)CCNC(=O)C2 [Example 227, 1^5-Ethynyl-3^4-(4-Methylpiperazin-1-yl)-1^7,1^8-dihydro-2,6-diaza-1(2,8)-pyrido[2,3-d]pyrimidina-3(1,3)-benzenacyclooctaphane-1^7,7-dione] | > 3000 | 1000 to 10000 | > 3000 | > 3000
C#Cc1cc(=O)n(-c2ccc(NC(=O)C=C)cc2)c2nc(Nc3ccccc3OC)ncc12 [Example 88, N-(4-(5-Ethynyl-2-((2-methoxyphenyl)amino)-7-oxopyrido[2,3-d]pyrimidin-8(7H)-yl)phenyl)acrylamide] | > 3000 | 1000 to 10000 | > 3000 | > 3000
C#Cc1cc(=O)n(-c2ccccc2)c2nc(Nc3ccc(N(C)C(=O)CN(C)C)cc3OC)ncc12 [Example 7, 2-(Dimethylamino)-N-(4-((5-ethynyl-7-oxo-8-phenyl-7,8-dihydropyrido[2,3-d]pyrimidin-2-yl)amino)-3-methoxyphenyl)-N-methylacetamide] | 1000 to 3000 | 1000 to 10000 | 1000 to 3000 | > 3000
C#Cc1c(-c2ccccc2Cl)c(=O)n(C)c2nc(Nc3ccc(N4CCN(C)CC4)cc3OC)ncc12 [Example 127, 6-(2-chlorophenyl)-5-ethynyl-2-{[2-methoxy-4-(4-methylpiperazin-1-yl)phenyl]amino}-8-methylpyrido[2,3-d]pyrimidin-7-one] | 1000 to 3000 | < 1000 | 500 to 1000 | 500 to 1000
C#Cc1cc(=O)n(-c2ccccc2)c2nc(Nc3ccc(N4CCC(N5CC(C(C)(C)O)C5)CC4)cc3)ncc12 [Example 40, 5-Ethynyl-2-[(4-{4-[3-(2-hydroxypropan-2-yl)azetidin-1-yl]piperidin-1-yl}phenyl)amino]-8-phenylpyrido[2,3-d]pyrimidin-7-one] | < 500 | < 1000 | < 500 | 1000 to 3000
C#Cc1cc(=O)n2c3nc(ncc13)Nc1ccc(N3CCN(C(C)C)CC3)c(c1)NC(=O)CCC2 [Example 235, 1^5-Ethynyl-3^4-(4-isopropylpiperazin-1-yl)-1^7,1^8-dihydro-2,4-diaza-1(2,8)-pyrido[2,3-d]pyrimidina-3(1,3)-benzenacyclooctaphane-1^7,5-dione] | < 500 | < 1000 | < 500 | 500 to 1000
C#Cc1c(C)c(=O)n2c3nc(ncc13)Nc1ccc(N3CCN(C)CC3)c(c1)OCCCC2 [Example 194, 1^5-Ethynyl-1^6-methyl-3^4-(4-methylpiperazin-1-yl)-1^7,1^8-dihydro-4-oxa-2-aza-1(2,8)-pyrido [2,3-d]pyrimidina-3(1,3)-benzenacyclooctaphan-1^7-one] | < 500 | < 1000 | < 500 | < 500
C#Cc1cc(=O)n(C2CCCC2)c2nc(Nc3cccc(CN4CC(CS(C)(=O)=O)C4)c3)ncc12 [Example 181] | > 3000 | > 10000 | > 3000 | > 3000
C#Cc1cc(=O)n2c3nc(ncc13)Nc1ccc(N3CCCN(C)CC3)c(c1)NC(=O)CCC2 [Example 238, 1^5-Ethynyl-3^4-(4-methyl-1,4-diazepan-1-yl)-1^7,1^8-dihydro-2,4-diaza-1(2,8)-pyrido[2,3-d]pyrimidina-3(1,3)-benzenacyclooctaphane-1^7,5-dione] | < 500 | < 1000 | < 500 | > 3000
C#Cc1cc(=O)n(-c2ccccc2)c2nc(Nc3ccc(N4CCC(N5CC(N(C)C)C5)CC4)cc3)ncc12 [Example 29, 2-[(4-{4-[3-(Dimethylamino)azetidin-1-yl]piperidin-1-yl}phenyl)amino]-5-ethynyl-8-phenylpyrido[2,3-d]pyrimidin-7-one] | < 500 | < 1000 | < 500 | > 3000
C=Cc1c(-c2ccccc2Cl)c(=O)n(C)c2nc(Nc3ccc(N4CCN(C)CC4)cc3OC)ncc12 [Example 170, 6-(2-chlorophenyl)-5-ethenyl-2-{[2-methoxy-4-(4-methylpiperazin-1-yl)phenyl]amino}-8-methylpyrido[2,3-d]pyrimidin-7-one] | > 3000 | > 10000 | > 3000 | > 3000
C#Cc1c(C)c(=O)n(Cc2ncc[nH]2)c2nc(Nc3ccc(N4CCN(C)CC4)cc3)ncc12 [Example 177, 5-Ethynyl-8-(1H-imidazol-2-ylmethyl)-6-methyl-2-{[4-(4-methylpiperazin-1-yl)phenyl]amino}pyrido[2,3-d]pyrimidin-7-one] | > 3000 | 1000 to 10000 | > 3000 | > 3000
C#Cc1cc(=O)n(C)c2nc(Nc3ccc(N4CCN(C)CC4)c(NC(=O)CC4CCCC4)c3)ncc12 [Example 217, 2-Cyclopentyl-N-(5-((5-ethynyl-8-methyl-7-oxo-7,8-dihydropyrido[2,3-d]pyrimidin-2-yl)amino)-2-(4-methylpiperazin-1-yl)phenyl)acetamide] | < 500 | < 1000 | < 500 | 1000 to 3000
C#Cc1cc(=O)n(-c2ccc(NC(=O)COC(C)=O)cc2)c2nc(Nc3ccccc3OC)ncc12 [Example 64, 2-((4-(5-Ethynyl-2-((2-methoxyphenyl)amino)-7-oxopyrido[2,3-d]pyrimidin-8(7H)-yl)phenyl)amino)-2-oxoethyl acetate] | > 3000 | 1000 to 10000 | > 3000 | > 3000
C#Cc1c(C)c(=O)n(Cc2cnc[nH]2)c2nc(Nc3ccc(N4CCN(C)CC4)cc3)ncc12 [Example 111, 5-ethynyl-8-(3H-imidazol-4-ylmethyl)-6-methyl-2-{[4-(4-methylpiperazin-1-yl)phenyl]amino}pyrido[2,3-d]pyrimidin-7-one] | 1000 to 3000 | 1000 to 10000 | 1000 to 3000 | > 3000
C#Cc1cc(=O)n(C2CCNC2=O)c2nc(Nc3ccc(N4CCN(C)CC4)cc3)ncc12 (stereo not shown) [Example 104, 3-(5-ethynyl-2-{[4-(4-methylpiperazin-1-yl)phenyl]amino}-7-oxopyrido[2,3-d]pyrimidin-8-yl)pyrrolidin-2-one] | 500 to 1000 | > 10000 | < 500 | > 3000
C#Cc1cc(=O)n2c3nc(ncc13)Nc1ccc(N3CCN(C)CC3)c(c1)NCCCC2 [Example 198, 1^5-Ethynyl-3^4-(4-methylpiperazin-1-yl)-1^7, 1^8-dihydro-2,4-diaza-1(2,8)-pyrido[2,3-d]pyrimidina-3(1,3)-benzenacyclooctaphan-1^7-one] | < 500 | > 10000 | 500 to 1000 | > 3000
